Measurements published in the NIST ThermoML archive (doi:10.1016/j.tca.2005.12.008).

Assay: molar heat capacity at constant pressure
Conditions: 101.33 kPa, Crystal, Small (less than 1 g) adiabatic calorimetry

O.O=C([O-])[C@H](O)[C@@H](O)CO.O=C([O-])[C@H](O)[C@@H](O)CO.[Cu+2] [copper(II) (2R,3S)-2,3,4-trihydroxybutanoate hydrate]
Conditions | molar heat capacity at constant pressure [J/K/mol]
77.95 K | 157.12
78.77 K | 158.43
79.58 K | 159.75
81.05 K | 161.91
83.23 K | 165.7
85.3 K | 168.87
87.33 K | 172.05
89.3 K | 175.55
91.24 K | 178.89
93.14 K | 182.28
95.01 K | 185.29
96.85 K | 188.44
98.65 K | 191.21
100.44 K | 194.62
102.18 K | 197.16
103.92 K | 200.13
105.63 K | 203.01
107.32 K | 205.34
109 K | 207.51
110.66 K | 210.17
112.29 K | 213.09
113.91 K | 215.33
115.53 K | 217.99
117.12 K | 220.64
118.7 K | 222.67
120.28 K | 224.56
121.83 K | 227.52
123.37 K | 230.1
124.9 K | 231.86
127.77 K | 236.46
132.03 K | 242.38
136.29 K | 248.21
140.39 K | 253.18
144.49 K | 258.87
148.5 K | 263.42
152.44 K | 269.25
156.37 K | 273.65
160.22 K | 278.91
163.99 K | 283.6
167.76 K | 289.57
171.53 K | 294.4
175.22 K | 298.81
178.91 K | 303.93
182.51 K | 308.62
186.04 K | 314.59
189.63 K | 319.74
193.17 K | 324.58
196.61 K | 329.37
200.05 K | 333.92
203.48 K | 338.93
206.76 K | 344.03
210.14 K | 349.72
213.41 K | 353.68
216.7 K | 358.82
219.87 K | 365.27
223.07 K | 370.33
226.27 K | 374.9
229.39 K | 380.28
232.43 K | 385.56
235.45 K | 390.94
238.48 K | 396.17
241.43 K | 401.58
244.3 K | 406.42
247.25 K | 410.96
250.17 K | 415.09
253.07 K | 420.05
255.94 K | 424.32
258.81 K | 430.57
261.59 K | 435.83
264.38 K | 439.95
267.25 K | 446.35
269.95 K | 449.9
272.74 K | 455.45
275.44 K | 460.56
278.15 K | 465.27
280.87 K | 471.63
283.46 K | 476.96
286.11 K | 481.85
288.64 K | 486.29
291.26 K | 492.12
293.8 K | 496.38
296.18 K | 501.64
298.72 K | 506.76
301.34 K | 511.59
304.73 K | 517.6
308.01 K | 525.08
311.68 K | 533.37
315.35 K | 539.96
318.3 K | 546.62
321.22 K | 553.21
324.17 K | 560.99
327.09 K | 567.58
330.19 K | 573.7
333.38 K | 581.34
336.12 K | 586.57
338.87 K | 593.18
341.62 K | 602.58
344.26 K | 609.21
346.73 K | 617.4
349.06 K | 625.08
351.28 K | 633.61
353.44 K | 639.41
355.51 K | 652.09
